Data: patent US7718186B2, “2-alkoxy-6-alkylphenyl-substituted spirocyclic tetramic acid derivatives” (Bayer CropScience AG, priority 2004, dated 2010)

Tests used:
Type in all cases: in vivo
Setaria viridis [1] = assay: Herbicidal post-emergence action; conditions: greenhouse, 320 g of a.i./ha
Protocol: (§1) 2. Herbicidal Post-emergence Action
(§2) Seeds of monocotyledonous and dicotyledonous weed and crop plants are placed into sandy loam in wood fiber pots, covered with soil and cultivated in the greenhouse under good growth conditions. Two to three weeks after sowing, the test plants are treated at the one-leaf stage. The test compounds, formulated as wettable powders (WP), are then, in various dosages with a water application rate of 600 l/ha (converted), with 0.2% of wetting agent added, sprayed onto the green parts of the plants. After the test plants have been kept in the greenhouse under optimum growth conditions for about 3 weeks, the effect of the preparations is rated visually in comparison to untreated controls (herbicidal effect in percent (%): 100% effect=the plants have died, 0% effect=like control plants).

Lolium multiflorum [2] = assay: Herbicidal post-emergence action; conditions: greenhouse, 320 g of a.i./ha
Protocol: as §1, §2

Echinocloa crus-galli = assay: Herbicidal post-emergence action; conditions: greenhouse, 320 g of a.i./ha
Protocol: as §1, §2

Summer barley = assay: Container trials with cereal in a greenhouse, with and without safener (post-emergence); conditions: crop damage; 50 g of a.i./ha; 28 days after application
Protocol: (§3) Herbicidal Post-emergence Action
(§4) Seeds of monocotyledonous and dicotyledonous weed and crop plants are placed into sandy loam in wood fiber pots or in plastic pots, covered with soil and cultivated in a greenhouse, during the vegetation period also outdoors outside of the greenhouse, under good growth conditions. Two to three weeks after sowing, the test plants are treated at the one- to three-leaf stage. The test compounds, formulated as wettable powders (WP) or liquid (EC) are, in various dosages with a water application rate of 300 l/ha (converted), with wetting agent (0.2 to 0.3%) added, sprayed onto the plants and the surface of the soil. Three to four weeks after the treatment of the test plants, the effect of the preparations is rated visually in comparison to untreated controls (herbicidal effect in percent (%):
(§5) (100% effect=the plants have died, 0% effect=like control plants).
(§6) If it is additionally to be tested as to whether safeners can improve the plant compatibility of test substances in the case of crop plants, the following options are used for applying the safener: • seeds of the crop plants are, before sowing, dressed with the safener substance (amount of safener stated in percent, based on the weight of the seed) • before the application of the test substances, the crop plants are sprayed with the safener at a certain application rate per hectare (usually 1 day before the application of the test substances) • the safener is applied together with the test substance as a tank mix (amount of safener stated in g/ha or as a ratio, based on the herbicide).
(§7) By comparing the effect of the test substances on crop plants without or with safener treatment, it is possible to assess the effect of the safener substance.
(§8) Container Trials with Cereal in a Greenhouse
(§9) Mefenpyr 1 Day Prior to Herbicide Application

Summer wheat = assay: as above; conditions: crop damage, 28 days after application
Protocol: as §3, §4, §5, §6, §7, §8, §9

Avena sativa = assay: Herbicidal pre-emergence action; conditions: greenhouse, 320 g of a.i./ha
Source text: (§10) 1. Herbicidal Pre-emergence Action
(§11) Seeds of monocotyledonous and dicotyledonous weed and crop plants are placed into sandy loam in wood fiber pots and covered with soil. The test compounds, formulated in the form of wettable powders (WP) are then, as an aqueous suspension with a water application rate of 600 l/ha (converted), with 0.2% of wetting agent added, applied to the surface of the covering soil in various dosages.
(§12) After the treatment, the pots are placed in the greenhouse and kept under good growth conditions for the test plants. The visual assessment of the emergence damage on the test plants is carried out after a trial period of 3 weeks by comparison with untreated controls (herbicidal effect in percent (%): 100% effect=the plants have died, 0% effect=like control plants).

Setaria viridis [3] = assay: Herbicidal pre-emergence action; conditions: greenhouse, 320 g of a.i./ha
Source text: as §10, §11, §12

Lolium multiflorum [4] = assay: Herbicidal pre-emergence action; conditions: greenhouse, 320 g of a.i./ha
Source text: as §10, §11, §12

SMILES | Setaria (herbicidal effect in percent) (Setaria viridis [1]) | Lolium (herbicidal effect in percent) (Lolium multiflorum [2]) | Echinochloa (herbicidal effect in percent) (Echinocloa crus-galli) | Summer barley observed (%) (Summer barley) | Summer wheat observed (%) (Summer wheat; 12.5 g of a.i./ha) | Summer wheat observed (%) (Summer wheat; 25 g of a.i./ha) | Summer wheat observed (%) (Summer wheat; 50 g of a.i./ha) | Avena (herbicidal effect in percent) (Avena sativa) | Setaria (herbicidal effect in percent) (Setaria viridis [3]) | Lolium (herbicidal effect in percent) (Lolium multiflorum [4])
CCc1cc(C)cc(OC)c1C1=C(O)C2CCCN2C1=O (stereo not shown) [Example I-a-2] | 100 | 100 | 100 | 90 | 40 | 60 | 95 |  |  | 
CCc1cc(C)cc(OC)c1C1=C(O)C2(CCC(OC)CC2)NC1=O (single isomer, unassigned) [Example I-a-6] | 90 | 100 | 100 |  |  |  |  | 100 | 100 | 100
